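Grown in 96-well plates, cells were treated for 48 hours with each compound at five concentrations. Insufficient inhibition: endpoint recorded as highest concentration tested. Here, GI50 denotes the concentration required for 50% inhibition of growth. TGI marks complete inhibition of growth.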
How the values were obtained:
Assay in all cases: NCI-60 cell line screen, 48 h
[1] = test system: 786-0 renal
[2] = test system: A549 NSCLC
[3] = test system: CCRF-CEM leukemia
[4] = test system: HL-60(TB) leukemia
[5] = test system: IGROV1 ovarian
[6] = test system: K-562 leukemia
[7] = test system: NCI-H522 lung
[8] = test system: SK-OV-3 ovarian
[9] = test system: UACC-257 melanoma
[10] = test system: MCF7 breast
[11] = test system: MDA-MB-435
[12] = test system: HS 578T breast

SMILES	TGI [1] [µM]	TGI [2] [µM]	TGI [3] [µM]	TGI [4] [µM]	TGI [5] [µM]	TGI [6] [µM]	TGI [7] [µM]	TGI [8] [µM]	TGI [9] [µM]	TGI [10] [µM]	TGI [11] [µM]	TGI [12] [µM]	GI50 [2] [µM]	GI50 [3] [µM]	GI50 [5] [µM]	GI50 [6] [µM]	GI50 [10] [µM]	GI50 [7] [µM]	GI50 [8] [µM]	GI50 [9] [µM]
CN=C(SC)N(C)c1nc(=[N+](C)C)ss1	> 100	> 100	> 100	> 100	> 100	69	> 100	> 100	> 100											
CC(C)=CCC(O)[C@](C)(O)[C@H]1[C@H](O)C[C@@]2(C)[C@@H]3CCc4cc(O)c(OC5OC(CO)C(O)C(O)C5O)cc4C3(C)C(=O)C[C@]12C (some centres undefined)	> 100	> 100	> 100		> 100	> 100	> 100	> 100	> 100	> 100	> 100									
N#C/C(=C/NC(N)=S)C(N)=O	> 100	> 100		> 100	> 100			> 100	> 100	> 100	> 100									
CCN(CC)CCSc1c2cc(OC)ccc2nc2ccc(OC)cc12	4.1	> 70.9	> 22.6	> 100	4.11	> 22.6	3.1	> 54.4	16.4	> 100	21.3									
CC(C)OC(=O)/C=C/C(=O)O/C=C/[N+](=O)[O-]	> 100	> 100			63	66.8		> 100	> 100	54.9	> 100									
O=C1c2ccsc2C(=O)c2sc(CO)cc21	0.855	0.125	1.35	3.72	1.36	2.48	0.259	2.97	0.0993		< 0.0178	0.191								
CCOc1ncn(-c2ccc(NC(=S)NC3OC(CO)C(O)C(O)C3O)cc2)n1 (centres undefined)	> 100	> 100	> 100	> 100	> 100	> 100	> 100	> 100	> 100	> 100	> 100									
CCOC(=O)Cc1nc2cc(F)c(F)cc2[nH]c1=O	> 100	> 100	> 100	> 100		> 100		> 100	> 100	> 100	> 100	> 100								
O=C(/C=C/c1ccc2ccccc2c1)NCc1ccc(C(=O)NCCc2ccccc2)cc1	> 100	> 100	> 100	> 100		> 100		> 100	> 100	> 100	> 100									
c1ccc(CNc2nncc3[nH]cnc23)cc1	> 100	> 100	> 100	> 100	> 100	> 100	> 100	> 100	> 100	> 100	> 100									
CCOC1=NC(O)c2cccn2-c2sccc21 (centres undefined)	> 100	> 100				> 100	> 100	> 100		> 100	> 100									
N#Cc1[nH]c(=O)n(-c2ccccc2)c1N	> 10	> 10	> 10	> 10	> 10	> 10		> 10	> 10		> 10	> 10								
COCc1nc2c(OC)c(-c3nc4nc(N5CCN(C)CC5)ccc4[nH]3)cc(OC)c2n1C	> 100	> 100	45.6	36.2	> 100	> 100	86.4	> 100	36.4		48.4	> 100								
CN(C(=O)Cc1cccc(N=C=S)c1)[C@H]1CCCC[C@@H]1N1CCCC1	28.6	33.9	32.9		28.1	53.2	27.6	69.4	28.9	27.5	27.8	45								
CC(=O)O[C@H]1C(=O)[C@@]2(C)C(C(OC(=O)c3ccccc3)[C@]3(O)CC(OC(=O)C(O)C(NC(=O)c4ccc(C(F)(F)F)cc4)c4ccccc4)C(C)=C1C3(C)C)[C@]1(OC(C)=O)CO[C@@H]1C[C@@H]2O (some centres undefined)	5.58	> 37.5	15.5	> 37.5	> 37.5	14.8	0.2	0.946	> 37.5											
O=C1NC(=S)NC(=O)C1C(c1ccc(O)cc1)C1C(=O)NC(=S)NC1=O	> 100	> 100	> 100	> 100	> 100	> 100	> 100		> 100	> 100	> 100									
CCOC(=O)c1cn2c(n1)sc1cc(Cl)ccc12	26.4	> 100	> 100		> 100	> 100	> 100	> 100	> 100	> 100	> 100	> 100								
COc1cc2oc(-c3ccc(O)cc3)c(OC)c(=O)c2c(O)c1OC		> 100	> 100		> 100	> 100	> 100	> 100	> 100	> 100			58.6	15.2	76.6	42.8	51.4	45.2	49.6	> 100
CC(C)=C[C@H]1CCC2(OCCO2)[C@]1(C)CO	> 100	> 100	> 100		> 100		> 100	> 100	> 100	> 100	> 100									
Cn1c(O)c(C(=O)NC2CCCCC2)c(=O)n(C)c1=S	22.9	17.4	> 100		27.8		16.9	23.8	28.5											
